Test results reported in paper PMC4678575 (MedChemComm, 2013).
One block for each compound: values may come before it.

What was measured:
[1] = biological target: first bromodomain of BRD4 (BRD4(1)) (Homo sapiens, UniProt O60885); experiment: AlphaScreen peptide displacement assay, BRD4; type: binding; conditions: for inhibition of BRD4(1), in words: AlphaScreen using isolated bromodomains
[2] = biological target: CBP (Homo sapiens, UniProt Q92793); experiment: DSF thermal shift, CBP; type: binding
[3] = biological target: CBP bromodomain (Homo sapiens, UniProt Q92793); experiment: AlphaScreen peptide displacement assay, CBP; type: binding; conditions: for affinity for the CBP bromodomain, in words: AlphaScreen using isolated bromodomains
[4] = Re-examination of stock solutions by LCMS; type: physicochemical; conditions: mass loss of 18 amu, likely dehydration to indene 16

CBP bromodomain, sequence (Q92793 1085-1192 limits assumed): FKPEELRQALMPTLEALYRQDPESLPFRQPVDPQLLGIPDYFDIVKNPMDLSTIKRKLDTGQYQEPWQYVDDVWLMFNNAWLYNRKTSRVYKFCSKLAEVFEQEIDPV
CBP, sequence (Q92793 1085-1192 limits assumed): as above

Compound: Cc1noc(C)c1-c1ccc2ncn(Cc3ccc(C#N)cc3)c2c1 [Compound 28a]
- selectivity for BRD4(1) over CBP ([1]; AlphaScreen BRD4(1) vs CBP): at least 100 fold
- stabilization of CBP, in words [2]: only minimal stabilization

Compound: Cc1noc(C)c1-c1ccc2nc[nH]c2c1 [Compound 8]
- affinity/potency for BRD4(1) compared with CBP, in words ([1]; AlphaScreen): comparable affinity for both bromodomains

Compound: Cc1noc(C)c1-c1ccc2cc[nH]c2c1 [Compound 7]
- inhibition of BRD4(1), in words [1]: modest inhibitors
- affinity for the CBP bromodomain, in words [3]: no affinity

Continued, values first:

- IC50 [3]: > 10 µM
Compound: Cc1noc(C)c1-c1ccc2c(c1)C(OCc1ccccc1)CC2 (stereo not drawn) [Compound 9]

- inhibition of BRD4(1), in words [1]: modest inhibitors
- affinity for the CBP bromodomain, in words [3]: no affinity
Compound: Cc1noc(C)c1-c1ccc2c(c1)C(=O)CC2 [Compound 6]

- chemical stability of stock solutions, in words [4]: decomposition of the parent compound
Compound: Cc1noc(C)c1-c1ccc2c(c1)C(O)(c1ccccc1)CC2 (stereo not drawn) [Compound 15]
